Measured values taken from US8410152B2 (Max-Planck-Gesellschaft zur Forderung der Wissenschaften e. …, priority 2006, dated 2013).
pIC50: −log10 of the molar value. Read-outs that look alike come from different tables or passages of the source.

Experiments:
tau construct K19 = tau construct K19 (Homo sapiens, UniProt P10636); experiment: Thioflavine S (ThS) assay for aggregation of tau; assay type: biochemical
Experimental: Thioflavine S (ThS) Assay for aggregation of tau: 10 μM of the tau construct K19 were incubated with compounds in a concentration range from 1 nM up to 200 μM in the presence of 2.5 μM heparin in 50 mM NH4Ac buffer over night at 37° C. After addition of 20 μM ThS the signal was measured at 521 nm (emission) at an excitation wavelength of 440 nm. The results of this assay are presented in the IC50 column and DC50 column of Table 1 below.

uninduced N2A cells = assay type: cell-based; settings: cell death as percent of LDH released into medium vs total LDH, compound 10 μM
Experimental: Neurotoxicity assay: Neurotoxicity was assessed using an LDH (lactate dehydrogenase) assay kit (Roche, Mannheim, Germany) according to the manufacturer's specifications. In the viability assay the aggregation inhibitor compound was added at a final concentration of 10 μM to uninduced N2A cells. The activity of LDH was measured spectrophotometrically at 492 nm. Cell death was calculated as percent of LDH released into medium, compared to total LDH obtained after total cell lysis.

N2a/K18ΔK280 cells = experiment: Tau aggregation and inhibition assay in cells (ThS staining); assay type: cell-based; settings: for inhibition at 10 µM: 120 h, read-out: Inhibition in cells
Experimental: Selection of an N2a, Tet-On, G418-resistant cell line: N2a cells were cotransfected with both the pUHD172-1 plasmid (encoding the rtTA, obtained from H. Bujard, Heidelberg) and pEU-1 plasmid (encoding G418 resistance, a derivative of pRc/CMV, Invitrogen) (ratio 20:1; 1 μg/well of 6-well plates) using the DOTAP transfection reagent (Roche, Basel, CH). The cells were cultured in Eagle's Minimum Essential Medium (MEM) supplemented with 10% defined fetal bovine serum and subjected to G418 (600 μg/ml) and selection. The cells were fed with fresh media every 4 days for 3-4 weeks when single colonies appeared. Clones were tested for the induction level by transient transfection of pUHG 16-3 plasmid and the induction of β-galactosidase was measured.
Generation of inducible Tet-On cell lines: The DNA fragments encoding the appropriate tau constructs (K18WT, K18ΔK280, K18/ΔK280/PP) were inserted into the bidirectional vector pBI-5 between ClaI and SalI restriction sites (pBI-5 is an unpublished derivative of pBI-2, Baron et al., 1995). The pBI-5/K18-derived plasmids with pX343 (plasmid encoding the hygromycin resistance) were used for cotransfection of N2a/Tet-On, G418-resistant cells with the aid of DOTAP (20:1 plasmid ratio; 1 μg/well of 6-well plates). The cells were seeded at 4×10^5 cells per well. On the following day cells were transferred to 100-mm dishes and selected with 100 μg/ml of hygromycin and 600 μg/ml of G418. Clonal cell lines were screened for the inducible expression of K18 derivatives by measuring luciferase activity with the luciferase assay and immunofluorescence for tau protein with the polyclonal pan-tau antibody K9JA.
Induction of K18-derivatives in Tet-On N2a cells: The inducible N2a/K18-derivatives cells were cultured in MEM medium supplemented with 10% fetal calf serum, 2 mM glutamine and 0.1% nonessential amino acids. The expression of K18 constructs was induced by adding 1 μg doxycyclin (Dox) per 1 ml medium. The induction was continued for 7-11 days, the medium was changed 3 times (always complemented with doxycyclin). For tau solubility assays the cells were collected by pelleting during centrifugation at 1000×g for 5 min. The levels and solubility of tau K18/ΔK280 were determined following Greenberg and Davies (1990). The cells were homogenized (DIAX900, Heidolph, Schwabach, Germany) in 10 vol (w/v) of buffer consisting of 10 mM Tris-HCl (pH 7.4), 0.8 M NaCl, 1 mM EGTA, and 10% sucrose. The homogenate was spun for 20 min at 20000×g, and the supernatant was retained. The pellet was re-homogenized in 5 vol of homogenization buffer and re-centrifuged. Both supernatants were combined, brought to 1% N-laurylsarkosinate (w/v) and incubated for 1 hr at room temperature while shaking, followed by centrifugation at 100 000×g for 1 hr. The sarkosyl-insoluble pellets were resuspended in 50 mM Tris-HCl (pH 7.4), 0.5 ml per 1 g of starting material. The supernatant and sarkosyl-insoluble pellet samples were analyzed by Western blotting. The amount of material loaded for supernatant and sarkosyl-insoluble pellet represented about 0.5% and 15% of the total material present in the supernatant and pellet respectively (the ratio between supernatant and sarkosyl insoluble pellet was always 1:30). For quantification of tau levels in each fraction, the Western blots were probed with pan-tau antibody K9JA and analyzed by densitometry (LAS 3000 and AIDA software, Raytest, Straubenhardt, Germany).
Quantitation of tau aggregation in cells by Thioflavin S (ThS) staining: Tet-On inducible undifferentiated N2a cells were treated with 1 μg/ml doxycyclin for 5, 7 or 9 days in a culture dish. After that the cells were trypsinized and transferred to coverslips and incubated overnight. The cells on the coverslips were fixed with 4% paraformaldehyde in PBS for 15 min, then permeabilized with 80% MeOH for 6 min at −20° C., and incubated with 0.1% Thioflavin S for 5 min and washed three times in ethanol (50%). […]

[1] = 10 μM tau construct K19, 2.5 μM heparin, ThS fluorescence
[2] = 10 μM tau construct K19, 2.5 μM heparin, ThS fluorescence, read-out: DC50
[3] = 10 μM tau construct K19, 2.5 μM heparin, over night at 37° C., ThS fluorescence, read-out: ID50 (the source's name)
[4] = N2a/K18ΔK280 cells, compound 10 μM with doxycyclin, 5 days, ThS-positive cells scored

Chain of tau construct K19 (P10636 with tags, fused parts or gaps isoform P10636-2 limits assumed): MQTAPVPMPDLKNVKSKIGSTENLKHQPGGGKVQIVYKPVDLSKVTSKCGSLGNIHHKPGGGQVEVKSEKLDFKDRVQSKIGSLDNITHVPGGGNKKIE

| DC50 (tau construct K19; [2]) [µM] | pIC50 (tau construct K19; [3]) | Compound | pIC50 (tau construct K19) | DC50 (tau construct K19; [1]) [µM] | LDH (uninduced N2A cells) [%] | inhibition at 10 µM (N2a/K18ΔK280 cells) [%] | inhibition at 10 µM (N2a/K18ΔK280 cells; [4]) [%] | Inhibition in cells (result in words: cytotoxicity) (N2a/K18ΔK280 cells; N2a/K18ΔK280 cells, compound 10 μM, 5 days) |
| --- | --- | --- | --- | --- | --- | --- | --- | --- |
| – | – | O=C(NNc1nc(-c2ccc(Cl)cc2)cs1)c1cc2ccccc2[nH]1 [Comp. 55, N′-[4-(4-chlorophenyl)-1,3-thiazol-2-yl]-1H-indole-2-carbohydrazide] | 4.05 | 105 | −1.1 | 54 | – | – |
| 2.7 | 5.39 | O=C(NNc1nc2c(s1)Cc1ccccc1-2)c1ccc(C(F)(F)F)cc1 [Comp. 66, N′-8H-indeno[1,2-d][1,3]thiazol-2-yl-4-(trifluoromethyl)benzohydrazide] | – | – | −4.6 | – | 53.9 | – |
| – | – | O=C(NNc1nc(-c2ccc(-c3ccccc3)cc2)cs1)c1cc2ccccc2[nH]1 [Comp. 58, N′-[4-(1,1′-biphenyl-4-yl)-1,3-thiazol-2-yl]-1H-indole-2-carbohydrazide] | 4.00 | > 200 | 54.5 | – | – | Cytotoxic at 5 d |
| – | – | CC(C)COc1ccc(-c2csc(NNC(=O)c3cc4ccccc4[nH]3)n2)cc1 [Comp. 56, N′-[4-(4-isobutyloxyphenyl)-1,3-thiazol-2-yl]-1H-indole-2-carbohydrazide] | 3.96 | > 200 | −0.6 | 50.8 | – | – |
| 1.2 | 5.89 | O=C(NNc1nc(-c2ccc([N+](=O)[O-])cc2)cs1)c1ccc(-c2ccccc2)cc1 [Comp. 7, N′-[4-(4-nitrophenyl)-1,3-thiazol-2-yl]-1,1′-biphenyl-4-carbohydrazide] | – | – | 5.0 | – | 69.7 | – |
| – | – | COc1cc(-c2csc(NNC(=O)c3cc4ccccc4[nH]3)n2)cc(OC)c1O [Comp. 53, N′-[4-(4-hydroxy-3,5-dimethoxyphenyl)-1,3-thiazol-2-yl]-1H-indole-2-carbohydrazide] | 3.77 | > 200 | −7.3 | 49.9 | – | – |
| 1.5 | 5.24 | O=C(NNc1nc(-c2ccc(N3CCCC3)cc2)cs1)c1ccc2ccccc2c1 [Comp. 16, N′-[4-(4-pyrrolidin-1-ylphenyl)-1,3-thiazol-2-yl]-2-naphthohydrazide] | – | – | 15.3 | – | – | – |
| > 200 | 4.23 | COc1cccc(-c2csc(NNC(=O)c3ccc(Cl)cc3)n2)c1 [Comp. 27, 4-chloro-N′-[4-(3-methoxyphenyl)-1,3-thiazol-2-yl]benzohydrazide] | – | – | 42.1 | – | – | – |
| > 200 | < 3.70 | O=C(NNc1nc2c(s1)Cc1ccccc1-2)c1ccc2c(c1)OCO2 [Comp. 44, N′-8H-indeno[1,2-d][1,3]thiazol-2-yl-1,3-benzodioxole-5-carbohydrazide] | – | – | 18.8 | – | – | – |
| > 200 | 4.33 | O=C(NNc1nc(-c2cc3ccccc3oc2=O)cs1)c1ccc(F)cc1 [Comp. 5, 4-Fluoro-N′-(4-(2-oxo-2H-chromen-3-yl)thiazol-2-yl)benzohydrazide] | – | – | 8.6 | – | – | – |
| 21.3 | 4.33 | O=C(NNc1nc(-c2cc3ccccc3o2)cs1)c1ccc(Cl)cc1 [Comp. 26, N′-[4-(1-benzofuran-2-yl)-1,3-thiazol-2-yl]-4-chlorobenzohydrazide] | – | – | −0.6 | – | – | – |
| > 200 | 3.83 | O=C(NNc1nc(-c2ccc(Br)cc2)cs1)Nc1ccccc1 [Comp. 30, 2-[4-(4-bromophenyl)-1,3-thiazol-2-yl]-N-phenylhydrazinecarboxamide] | – | – | 6.4 | – | – | – |
| 10.8 | 5.11 | Cc1sc(NNC(=O)c2ccc(Cl)cc2)nc1-c1cccc([N+](=O)[O-])c1 [Comp. 19, 4-chloro-N′-[5-methyl-4-(3-nitrophenyl)-1,3-thiazol-2-yl]benzohydrazide] | – | – | 47.4 | – | – | – |
| 33.5 | 4.97 | O=C(NNc1nc(-c2ccc([N+](=O)[O-])cc2)cs1)Nc1ccccc1 [Comp. 6] | – | – | 2.1 | – | – | – |
| – | – | O=C(NNc1nc(-c2ccc3ccccc3c2)cs1)c1ccc(C(F)(F)F)cc1 [Comp. 50, N′-[4-(2-naphthyl)-1,3-thiazol-2-yl]-4-(trifluoromethyl)benzohydrazide] | – | – | −7.6 | – | 52.6 | – |
| > 200 | < 3.70 | CC(C)(C)c1csc(NNC(=O)c2ccc(Cl)cc2)n1 [Comp. 48, N′-(4-tert-butyl-1,3-thiazol-2-yl)-4-chlorobenzohydrazide] | – | – | 48.1 | – | – | – |
| > 200 | 3.83 | O=C(NNc1nc(-c2cccs2)cs1)c1ccc(Cl)cc1 [Comp. 29, 4-chloro-N′-(4-thien-2-yl-1,3-thiazol-2-yl)benzohydrazide] | – | – | 3.8 | – | – | – |
| > 200 | < 3.70 | O=C(NNc1nc(-c2ccc(Br)cc2)cs1)c1ccc(F)cc1 [Comp. 40, N′-[4-(4-bromophenyl)-1,3-thiazol-2-yl]-4-fluorobenzohydrazide] | – | – | 4.9 | – | – | – |
| > 200 | < 3.70 | O=C(NNc1nc(-c2ccccc2)cs1)c1ccc(-c2ccccc2)cc1 [Comp. 37, N′-(4-phenyl-1,3-thiazol-2-yl)-1,1′-biphenyl-4-carbohydrazide] | – | – | 3.6 | – | – | – |

| Compound | DC50 (tau construct K19; [2]) [µM] | pIC50 (tau construct K19; [3]) | pIC50 (tau construct K19) | DC50 (tau construct K19; [1]) [µM] | LDH (uninduced N2A cells) [%] | inhibition at 10 µM (N2a/K18ΔK280 cells) [%] | inhibition at 10 µM (N2a/K18ΔK280 cells; [4]) [%] | Inhibition in cells (result in words: cytotoxicity) (N2a/K18ΔK280 cells; N2a/K18ΔK280 cells, compound 10 μM, 5 days) |
| --- | --- | --- | --- | --- | --- | --- | --- | --- |
| Cc1nc(NNC(=O)c2ccc3[nH]cnc3c2)sc1-c1ccc(Br)cc1 [Comp. 62, N′-[5-(4-bromophenyl)-4-methyl-1,3-thiazol-2-yl]-1H-benzimidazole-5-carbohydrazide] | 38.1 | 4.47 | – | – | −2.8 | 68.3 | – | – |
| O=C(NNc1nc(-c2ccccc2)cs1)c1ccc2c(c1)OCO2 [Comp. 45, N′-(4-phenyl-1,3-thiazol-2-yl)-1,3-benzodioxole-5-carbohydrazide] | > 200 | < 3.70 | – | – | 22.6 | – | – | – |
| O=C(NNc1nc(-c2ccccc2)cs1)c1cccnc1 [Comp. 1, N′-(4-Phenylthiazol-2-yl)nicotinohydrazide] | 1.7 | 4.77 | – | – | 56.8 | – | – | – |
| [N-]=[N+]=Nc1ccc(-c2csc(NNC(=O)c3ccc(F)cc3)n2)cc1 [Comp. 14, N′-[4-(4-azidophenyl)-1,3-thiazol-2-yl]-4-fluorobenzohydrazide] | 1.3 | 5.33 | – | – | 42.5 | – | – | – |
